Measured values published in patent US20180186796A1, “COMPOUNDS AND USES THEREOF” (LEAD DISCOVERY SIENA S.R.L., priority 2014, published 2018).
In brackets after ≈: the same amount, converted by molar mass. Where two headings read alike, the source gives them in different places.

Legend:
SH-SY5Y cells = assay: Antiproliferative activity on neuroblastoma human cell line SH-SY5Y; assay type: cell-based; settings: 72 h, viable cells vs untreated
Protocol: (§1) In vitro experiments were carried out using the human neuroblastoma cell line SH-SY5Y. Cells were purchased from American Type Culture Collection (ATCC, Manassas, Va., USA) and were cultured in DMEM medium supplemented with 100/Foetal Bovine Serum. In order to determine antiproliferative effect of drugs SH-SY5Y cells were seeded at 2×10^5 cells/ml density and treated with compounds at increasing concentrations from 0.01 to 50 μM. The cultures were maintained at 37° C. in 5% v/v CO2 for 72 h. Cell number and vitality were evaluated using the automatic cell counter NucleoCounter® (Chemometec, Denmark). Results from the NucleoCounter represented either total or non-viable cell concentration, depending on the sample preparation indicated by manufacturer.
as §1, with “10% Foetal” for “100/Foetal”

U251 cells = assay: Proliferation assay on U251 cells; assay type: cell-based, human; settings: 72 h, viable cells vs untreated
Protocol: (§2) U87 and U251 cells were purchased from European Collection of Cell Cultures (ECACC, Salisbury, UK) and were cultured in DMEM medium supplemented with 10% Foetal Bovine Serum. In order to determine antiproliferative effect of drugs tumor cells were seeded at 2×10^5 cells/ml density and treated with compounds at indicated concentrations. The cultures were maintained at 37° C. in 5% v/v CO2 for 72 h. Cell number and viability were evaluated by Trypan blue exclusion test. Viable cells were expressed as percentage respect to cells treated with vehicle (=100%). Mean and SD values of at least three different experiments are shown.
(§3) U87 and U251 cells were purchased from European Collection of Cell Cultures (ECACC, Salisbury, UK) and were cultured in DMEM medium supplemented with 10% Foetal Bovine Serum. In order to determine antiproliferative effect of drugs tumor cells were seeded at 2×10^5 cells/ml density and treated with compounds at indicated concentrations. The cultures were maintained at 37° C. in 5% v/v CO2 for 72 h. Cell number and viability were evaluated by Trypan blue exclusion test. Viable cells were expressed as percentage respect to untreated cells (=100%/). Mean and SD values of at least three different experiments are shown.

U87 cells [1] = assay: Proliferation assay on U87 cells; assay type: cell-based, human; settings: 72 h, viable cells vs untreated
Protocol: as §2, §3

Water solubility assay = settings: for H2O Sol.: Table 8, 20° C., 24 h; for solubility at 24 h / solubility thermodynamic at 24 h: water, 20 °C, thermodynamic from solid
PAMPA, BBB permeability = settings: for PAMPA BBB (MR %): Membrane Retention; for Papp at 5 h, 0.5 mM: PAMPA, pH 7.4
Protocol: (§4) Donor solution (0.5 mM) was prepared by diluting 1 mM dimethylsulfoxide (DMSO) compound stock solution using phosphate buffer (pH 7.4, 0.025 M). […] Donor solution (150 μL) was added to each well of the filter plate. To each well of the acceptor plate were added 300 μL of solution (50% DMSO in phosphate buffer). All compounds were tested in three different plates on different days. The sandwich was incubated for 5 h at room temperature under gentle shaking. After the incubation time, the plates were separated, and samples were taken from both receiver and donor sides and analyzed using LC with UV detection at 280 nm.
(§5) Permeability (Papp) for PAMPA was calculated according to the following equation, obtained from Wohnsland and Faller^27 and Sugano et al.^28 equation with some modification in order to obtain permeability values in cm s^−1,
(§6) Drug concentration is estimated by using the peak area integration. Membrane retentions (%) were calculated according to the following equation:
(§7) where r is the ratio between drug concentration in the acceptor and equilibrium concentration, D, A, and Eq represented drug concentration in the donor, acceptor and equilibrium solution, respectively.
(§8) Donor solution of tested compounds (0.5 mM) was prepared by diluting 1 mM dimethylsulfoxide (DMSO) compound stock solution using phosphate buffer (pH 7.4, 25 mM). […] Donor solution (150 μL) was added to each well of the filter plate. To each well of the acceptor plate were added 300 μL of solution (50% DMSO in phosphate buffer). Compounds was tested in three different plates on different days. The sandwich was incubated for 5 h at room temperature under gentle shaking.
(§9) Permeability (Papp) for PAMPA was calculated according to the following equation, obtained from Wohnsland and Faller and Sugano et al.^27, 28.
(§10) Drug concentration is estimated by using the peak area integration. Membrane retention (%) was calculated according to the following equation:

[2] = Microsomal stability assay; settings: percentage of unmodified drug, Table 8
[3] = PAMPA, intestinal (GI) permeability; settings: for PAMPA GI (MR %): Membrane Retention; for Papp at 5 h, 0.5 mM: PAMPA, pH 7.4
Protocol: as §4, §5, §6, §7, §8, §9, §10

K562 cells = assay: Antiproliferative activity on human cell line K562; assay type: cell-based
Protocol: In vitro experiments were carried out using the human Chronic Myelogeneous Leukemia cell line K562. Cells were purchased from American Type Culture Collection (ATCC, Manassas, Va., USA) and were cultured in RPMI medium supplemented with 10% Foetal Bovine Serum. […] Cell number and vitality were evaluated using the automatic cell counter NucleoCounteri (Chemometec, Denmark). Results from the NucleoCounter represented either total or non-viable cell concentration, depending on the sample preparation indicated by manufacturer.
In vitro experiments were carried out using the human Chronic Myelogeneous Leukemia cell line K562. Cells were purchased from American Type Culture Collection (ATCC, Manassas, Va., USA) and were cultured in RPMI medium supplemented with 10% Foetal Bovine Serum. […] Cell number and vitality were evaluated using the automatic cell counter NucleoCounter® (Chemometec, Denmark). Results from the NucleoCounter represented either total or non-viable cell concentration, depending on the sample preparation indicated by manufacturer.

[4] = system: Fyn mediated phosphorylation of residue Tyr18 in Tau protein; assay: Aβ42 induced Tyr18-Tau phosphorylation in differentiated SH-SY5Y cells; assay type: cell-based, human
Protocol: The neuroblastoma cell line SH-SY5Y was cultured in media obtained by mixing equal volume of MEM and HAM F12 supplemented with 15% fetal calf serum (FCS, Australian origin, Lonza), 100 U/ml penicillin, 100 μg/ml streptomycin and 2 mM L-glutamine (all from Euroclone) at 37° C. in humidified air with 5% CO2. The medium was changed every 48 hours. Cells were split at about 80% confluence and never cultured beyond passage 20. Cell differentiation was achieved by pre-treating for 5 days the SH-SY5Y cells with media containing 1% FCS and 10 μM retinoic acid (RA, Sigma Aldrich). Subsequently cells were treated for other 7 days in media with no serum and supplemented with 50 ng/ml of human recombinant brain derived neurotrophic factor (BDNF, Peprotech), 10 ng/ml human recombinant beta nerve growth factor (NGF, Peprotech), 10 ng/ml neuregulin 1 beta 2 protein (NRG, Abcam) and 9.35 μg/ml vitamin D3 (Sigma Aldrich). To confirm full neuronal differentiation, the expression of mature isoforms of Tau were checked. Differentiated cells were treated for 1.5, 3 and 6 hours with media containing 10 μM Aβ42 oligomer/protofibrils and N2 supplement (Life Technologies), in the presence or in the absence of Fyn inhibitors dissolved in DMSO. As control, cells were treated with media containing equivalent amounts of DMSO.
Briefly, Aβ42 peptides (Sigma) were dissolved in 1,1,1,3,3,3-hexafluoro-2-propanol and lyophilized to completely remove the solvent. Lyophilized Aβ42 peptides were reconstituted in DMSO to a working concentration of 10 mM, diluted 1:100 using HAM F12 (without phenol red and glutammine), vortexed for 15 sec and incubated 24 hours at 4° C. A042 oligomer/protofibrils were visualized by SDS-PAGE and silver staining.

human normal fibroblasts = assay: Toxicity in human normal fibroblasts; assay type: cell-based
[5] = Stability tests in phosphate buffer and methanol; assay type: physicochemical; settings: 20° C., 48 h incubation
[6] = Enzymatic stability in human plasma; assay type: in vitro ADME; settings: for half-life at 100 μM: human, pooled human plasma diluted with phosphate buffer, pH 7.4
[7] = In vivo pharmacokinetics / biodistribution; design: species or system mice; settings: 50 mg/Kg i.p.; for Quantity of Compound, BLOOD / Quantity of Compound, BRAIN: administered compound itself, BALB/C mice
Protocol: The animal protocols used were reviewed and approved by the Animal Care and Ethics Committee of the Universita{grave over ( )} degli Studi di Siena, Italy. Male BALB/C mice (weight 20-30 g) were obtained from Charles River (Milan, Italy). […] The blood, previously heparinized, was centrifuged at 4000 rpm for 20 minutes to separate the plasma fraction and then 500 μl were collected in a test tube. […] Samples were centrifuged at 4000 rpm for 20 minutes, the supernatant was recovered, dried under vacuum and analyzed by LC-UV-MS. Brain was homogenized using a glass/glass Potter-Elvehjem homogenizer in presence of Tris-HCl buffer (50 mM) and compounds were recovered using 7 mL of ACN then treated as previously described for blood samples.

U87 cells [8] = assay: Orthotopic mouse model of GBM; assay type: in vivo, mice; settings: 50 mg/kg three times per week for 4 weeks
Protocol: Survival curves (days) of orthotopic mouse model of GBM.
Male CD1 nude mice (Charles River, Milan, Italy) were maintained under the guidelines established by University of L'Aquila, Medical School and Science and Technology School Board Regulations, complying with the Italian government regulations for the use of laboratory animals. Before any invasive manipulation, mice were anesthetized with a mixture of ketamine (25 mg/ml)/xylazine (5 mg/ml). Tumor grafts were obtained by injecting with a Hamilton syringe mounted on a stereotactic instrument, 2*10^3 U87 cells resuspended in 2 microL PBS (David Kopf Instruments, CA, USA). The cells were injected after the exposition of periosteal cranic site and the drimming of a 1 mm diameter hole localized at 4 mm from striatum and with a depth of 4 mm. The wound was treated with antibiotics and was surgically sutured.

[9] = methanol, read-out: Stability MeOH t1/2
[10] = phosphate buffer, pH 7.4, read-out: Stability PBS pH 7.4 t1/2
[11] = 37° C., read-out: Stability Human Plasma t1/2 (converted)

Structure (SMILES) | H2O Sol. (Water solubility assay) [µg/mL] | PAMPA BBB (MR %) (PAMPA, BBB permeability) | Metabolic Stab. % [2] [%] | PAMPA GI (MR %) [3] | IC50 (SH-SY5Y cells; Homo sapiens, SH-SY5Y) [µM] | IC50 (U251 cells; Homo sapiens, U-251) [µM] | IC50 (U87 cells [1]; Homo sapiens, U-87 MG) [µM] | half-life at 500 μM [5, 9] [h] | half-life at 500 μM [5, 10] [h] | half-life at 100 μM [6, 11] [h] | solubility at 24 h (Water solubility assay) [µM] | solubility thermodynamic at 24 h (Water solubility assay) [µg/mL] | Papp at 5 h, 0.5 mM (PAMPA, BBB permeability) [×10⁻⁶ cm/s] | Papp at 5 h, 0.5 mM [3] [×10⁻⁶ cm/s] | further results
CSc1nc(Nc2cccc(Br)c2)c2cnn(CC(C)c3ccccc3)c2n1 (centres unmarked) [Si278, N-(3-bromophenyl)-6-(methylthio)-1-(2-phenylpropyl)-H-pyrazolo[3,4-d]pyrimidin-4-amine] | <0.01 | (66.3) % | 95.1 | (80.4) % | – | – | – | – | – | – | – | – | – | – | IC50 (SH-SY5Y cells): 1.2 µM; IC50 (U251 cells): 3.7 µM; IC50 (U87 cells [1]): 5.8 µM; H2O Sol. (Log S) (Water solubility assay; Table 8): (<−7.60) log mol · L^−1; PAMPA BBB (PAMPA, BBB permeability; Blood Brain Barrier PAMPA): 0.50 10^−6 cm · sec^−1; PAMPA GI ([3]; Gastrointestinal PAMPA, Table 8): 0 10^−6 cm · sec^−1
Cc1ccc(-c2nn(CC(Cl)c3ccccc3)c3ncnc(N)c23)cc1 (centres unmarked) [Si309, 1-(2-Chloro-2-phenylethyl)-3-(4-methylphenyl)-1H-pyrazolo[3,4-d]pyrimidin-4-amine] | – | – | – | – | – | – | – | – | – | – | – | – | – | – | IC50 for cell viability K562 (K562 cells): submicromolar range; IC50 (K562 cells; Homo sapiens, K562, read-out: Cellular Data (IC50, μM) K562): 0.3 ± 0.06 µM; duration of inhibitory activity on Tau phosphorylation ([4]; after compound administration): effective up to six hours; Aβ42 induced Tyr18-Tau phosphorylation ([4]; dose dependent): significantly affected; cell toxicity in human normal fibroblasts (human normal fibroblasts): did not showed any sign of cell toxicity
CCCCN(C(=O)OCCN1CCN(C)CC1)c1nc(SCC)nc2c1cnn2CC(Cl)c1ccccc1 (centres unmarked) [proSi20, 2-(4-Methylpiperazin-1-yl)ethyl butyl(1-(2-chloro-2-phenylethyl)-6-(ethylthio)-1H-pyrazolo[3,4-d]pyrimidin-4-yl)carbamate] | – | – | – | – | 0.3 | 0.8 | 3.6 | – | – | – | – | – | – | – | –
CN1CCN(CCOC(=O)N(c2ccccc2)c2ncnc3c2cnn3CC(Cl)c2ccc(Br)cc2)CC1 (centres unmarked) [proSi223, 2-(4-Methylpiperazin-1-yl)ethyl (1-(2-(4-bromophenyl)-2-chloroethyl)-H-pyrazolo[3,4-d]pyrimidin-4-yl)(phenyl)carbamate] | – | (24.9) % | – | (16.0) % | 12.6 | 4.7 | 5.1 | > 48 | > 48 | 4.47 | 70.8 (≈ 42.4 µg/mL) | 41.6 (≈ 69.4 µM) | 6.97 | 9.91 | –
CSc1nc(N(C(=O)OCCN2CCN(C)CC2)c2cccc(Br)c2)c2cnn(CC(C)c3ccccc3)c2n1 (centres unmarked) [proSi278 (A), 2-(4-Methylpiperazin-1-yl)ethyl (3-bromophenyl)(6-(methylthio)-1-(2-phenylpropyl)-1H-pyrazolo[3,4-d]pyrimidin-4-yl)carbamate] | 6.47 | (49.8) % | 99.9 | (67.0) % | 0.4 | 5.2 | 6.3 | > 48 | > 48 | – | 11.5 (≈ 7.17 µg/mL) | – | 1.89 | 2.11 | Stability Human Plasma t1/2 ([6]; 37° C.): 3.21 h; half-life at 100 μM ([6]; read-out: t1/2 in human plasma (converted)): 3.21 h
CN1CCN(CCOC(=O)N(c2cccc(Br)c2)c2nc(SCCN3CCOCC3)nc3c2cnn3CC(Cl)c2ccccc2)CC1 (centres unmarked) [proSi306] | – | (42.0) % | – | (45.5) % | – | – | – | > 48 | > 48 | 3.48 | 11.7 (≈ 8.74 µg/mL) | 8.7 (≈ 11.7 µM) | 2.91 | 2.13 | brain concentration with respect to the drug [7]: higher brain concentration; Quantity of Compound, BLOOD ([7]; 15′): 10.7 ± 1.11 nmol of compound/g of tissue; Quantity of Compound, BLOOD ([7]; 30′): 8.9 ± 1.22 nmol of compound/g of tissue; Quantity of Compound, BLOOD ([7]; 1 h): 11.4 ± 1.29 nmol of compound/g of tissue; Quantity of Compound, BLOOD ([7]; 2 h): 7.2 ± 2.17 nmol of compound/g of tissue; Quantity of Compound, BLOOD ([7]; 4 h): 6.5 ± 0.58 nmol of compound/g of tissue; Quantity of Compound, BLOOD ([7]; 8 h): 6.2 ± 2.07 nmol of compound/g of tissue; Quantity of Compound, BLOOD ([7]; 24 h): 3.7 ± 0.60 nmol of compound/g of tissue; Quantity of Compound, BLOOD ([7]; […]): 8.3 ± 2.21 nmol of compound/g of tissue; Quantity of Compound, BRAIN ([7]; 15′): 5.3 ± 1.5 nmol of compound/g of tissue; Quantity of Compound, BRAIN ([7]; 30′): 3.4 ± 0.33 nmol of compound/g of tissue; Quantity of Compound, BRAIN ([7]; 1 h): 3.4 ± 2.24 nmol of compound/g of tissue; Quantity of Compound, BRAIN ([7]; 2 h): 2.8 ± 0.60 nmol of compound/g of tissue; Quantity of Compound, BRAIN ([7]; 4 h): 2.9 ± 1.38 nmol of compound/g of tissue; Quantity of Compound, BRAIN ([7]; 8 h): 3.6 ± 2.12 nmol of compound/g of tissue; Quantity of Compound, BRAIN ([7]; 24 h): 6.6 ± 1.08 nmol of compound/g of tissue; Quantity of Compound, BRAIN ([7]; […]): 2.4 ± 0.24 nmol of compound/g of tissue; survival of mice respect to control group (U87 cells [8]): significant ability in prolonging survival
